From US20240027435A1, “METHOD AND KIT FOR LABELING EUKARYOTIC CELLS FROM A MULTICELLULAR ORGANISM USING MODIFIED MONOSACCHARIDE COMPOUNDS AND PHARMACEUTICAL COMPOSITION COMPRISING SUCH CELLS” (THERAONCO, priority 2020, published 2024)

Assays:
Format in all cases: cell-based, Human
[1] = test system: MDA-MB-231; experiment: Labelling of cells, fluorescence cancer/non cancer ratio: MDA-MB-231 vs Breast epithelial cell; settings: fluorescence signal ratio; MDA-MB-231 (Breast adenocarcinoma) vs Breast epithelial cell; one doubling time (40 h)
Description: (§1) The cell lines were grown in suitable medium, supplemented by 10% fetal bovine serum (FBS) (VWR international S.A.S). The culture medium was changed every two days. The passaging of cells was performed using Tryp-LE express 1× (Gibco). The cell viability was estimated using trypan blue exclusion tests.
(§2) Cells were seeded in 24-well plates, at a density of 5×10^4 cells/well. Then, cells were incubated at 37° C., 5% CO2, during 24 hours. The culture media were adapted to the tested cells and supplemented by 10% fetal bovine serum (FBS). The incubation time corresponded to one doubling time of the tested cells. The fluorescence signal cancer/non cancer ratios were calculated based on fluorescence intensities obtained with Xylose-N3 or Ribose-N3 tested on cancer and corresponding non cancer cells.
(§3) The fluorescence assimilation of Xylose-N3 or Ribose-N3 probes was visualized by copper-free click chemistry using sulfo-DBCO-biotin (1 mM), followed by labeling with a mouse anti-biotin Alexa Fluor 488 antibody conjugate (0.62 mg/ml stock, Jackson ImmunoResearch, dilution 1/10). […]
(§4) The fluorescence acquisition was recorded using Olympus Microscopy IX83 (Olympus Life Science) equipped with a 60×/1.3 […]/1.4 SRI (silicone refractive index) objective, and Hamamatsu oreca flash 4 LT camera with 109 nm/pixel calibrated pixel size. […]

[2] = test system: MDA MB175; experiment: Labelling of cells, fluorescence cancer/non cancer ratio: MDA MB175 vs HME-1; settings: fluorescence signal ratio; MDA MB175 (Breast cancer) vs HME-1; one doubling time (30 h)
Description: as §1, §2, §3, §4

[3] = test system: KCL22; experiment: Labelling of cells, fluorescence cancer/non cancer ratio: KCL22 vs Lymphocytes; settings: fluorescence signal ratio; KCL22 (Blood, chronic myelogenous leukemia) vs Lymphocytes; one doubling time (24 h)
Description: as §1, §2, §3, §4

[4] = test system: A431; experiment: Labelling of cells, fluorescence cancer/non cancer ratio: A431 vs Hacat; settings: fluorescence signal ratio; A431 (Skin, Epidermoid carcinoma) vs Hacat; one doubling time (30 h)
Description: as §1, §2, §3, §4

[5] = test system: DOHH-2; experiment: Labelling of cells, fluorescence cancer/non cancer ratio: DOHH-2 vs Isolated primary B cells; settings: fluorescence signal ratio; DOHH-2 (Blood, Diffuse large B-cell lymphoma germinal center B-cell type, 40-48 h) vs Isolated primary B cells
Description: as §1, §2, §3, §4

[6] = test system: Kasumi-1; experiment: Labelling of cells, fluorescence cancer/non cancer ratio: Kasumi-1 vs B12-F8; settings: fluorescence signal ratio; Kasumi-1 (Blood, Acute Myeloid Leukemia, 48 h) vs B12-F8 (24 h); one doubling time
Description: as §1, §2, §3, §4

[7] = test system: BL-2; experiment: Labelling of cells, fluorescence cancer/non cancer ratio: BL-2 vs Isolated primary B cells; settings: fluorescence signal ratio; BL-2 (Blood, non-endemic Burkitt lymphoma, 24 h) vs Isolated primary B cells
Description: as §1, §2, §3, §4

[8] = test system: PANC; experiment: Labelling of cells, fluorescence cancer/non cancer ratio: PANC vs HPNE; settings: fluorescence signal ratio; PANC (Pancreas, Pancreatic carcinoma) vs HPNE; one doubling time (32 h)
Description: as §1, §2, §3, §4

[9] = test system: THP1; experiment: Labelling of cells with azido-monosaccharide probe, fluorescence cancer/non cancer ratio: THP1 vs Monocytes/Macrophages; settings: fluorescence signal ratio; THP1 (Blood, monocytic acute leukemia) vs Monocytes/Macrophages; incubation one doubling time (26 h)
Description: as §1, §2, §3, §4

[10] = test system: OCI-Ly3; experiment: Labelling of cells, fluorescence cancer/non cancer ratio: OCI-Ly3 vs Isolated primary B cells; settings: fluorescence signal ratio; OCI-Ly3 (Blood, Diffuse large B-cell lymphoma, 24 h) vs Isolated primary B cells
Description: as §1, §2, §3, §4

[11] = test system: AGS; experiment: Labelling of cells, fluorescence cancer/non cancer ratio: AGS vs Stomach epitelial cell; settings: fluorescence signal ratio; AGS (Stomach, Gastric adenocarcinoma) vs Stomach epitelial cell; one doubling time (30 h)
Description: as §1, §2, §3, §4

[12] = test system: HT29; experiment: Labelling of cells, fluorescence cancer/non cancer ratio: HT29 vs Colon epithelial cell; settings: fluorescence signal ratio; HT29 (colon, Colorectal adenocarcinoma) vs Colon epithelial cell; one doubling time (40 h)
Description: as §1, §2, §3, §4

[13] = test system: K562; experiment: Labelling of cells, fluorescence cancer/non cancer ratio: K562 vs Lymphocytes T; settings: fluorescence signal ratio; K562 (Blood, Chronic Myeloid Leukemia) vs Lymphocytes T; one doubling time (24 h)
Description: as §1, §2, §3, §4

[14] = test system: A549; experiment: Labelling of cells, fluorescence cancer/non cancer ratio: A549 vs Bronchial epithelial cell; settings: fluorescence signal ratio; A549 (Lung, Carcinoma) vs Bronchial epithelial cell; one doubling time (40 h)
Description: as §1, §2, §3, §4

[N-]=[N+]=NC[C@@H](O)[C@H](O)[C@@H](O)C=O [Xylose-N3, 5-azido-5-deoxy-xylose]
Cancer/Non Cancer Ratio [1]: 4
Cancer/Non Cancer Ratio [2]: 3
Cancer/Non Cancer Ratio [3]: 7
Cancer/Non Cancer Ratio [4]: 12
Cancer/Non Cancer Ratio [5]: 12
Cancer/Non Cancer Ratio [6]: 2
Cancer/Non Cancer Ratio [7]: 2
Cancer/Non Cancer Ratio [8]: 3
Cancer/Non Cancer Ratio [9]: 25
Cancer/Non Cancer Ratio [10]: 9
Cancer/Non Cancer Ratio [11]: 2
Cancer/Non Cancer Ratio [12]: 8
Cancer/Non Cancer Ratio [13]: 5
Cancer/Non Cancer Ratio [14]: 10
